Measurements reported in ChEMBL document CHEMBL1148869, “Synthesis and SAR studies of potent imidazopyridine anticoccidial agents” (Bioorg Med Chem Lett, 2007).
pIC50: −log10 of the molar value.

What was measured:
[1] = target: cGMP-dependent protein kinase (Eimeria tenella, UniProt Q8MMZ8); assay: Inhibition of Et-PKG
Eimeria acervulina [2] = assay: Anticoccidial activity against Eimeria acervulina infected Chick assessed as reduction in oocyst production at 12.5 ppm after 7 days; type: functional; design: scale not given: the % may be the effect or the level left
Eimeria tenella [3] = assay: Anticoccidial activity against Eimeria tenella infected Chick assessed as reduction in oocyst production at 12.5 ppm after 7 days; type: functional; design: scale not given: the % may be the effect or the level left
Eimeria tenella [4] = assay: Anticoccidial activity against Eimeria tenella infected Chick assessed as reduction in oocyst production at 50 ppm after 7 days; type: functional; design: scale not given: the % may be the effect or the level left
Eimeria acervulina [5] = assay: Anticoccidial activity against Eimeria acervulina infected Chick assessed as reduction in oocyst production at 50 ppm after 7 days; type: functional; design: scale not given: the % may be the effect or the level left
Eimeria tenella [6] = assay: Anticoccidial activity against Eimeria tenella infected Chick assessed as reduction in oocyst production at 25ppm after 7 days; type: functional; design: scale not given: the % may be the effect or the level left
Eimeria acervulina [7] = assay: Anticoccidial activity against Eimeria acervulina infected Chick assessed as reduction in oocyst production at 25 ppm after 7 days; type: functional; design: scale not given: the % may be the effect or the level left

Sequence of cGMP-dependent protein kinase (Q8MMZ8 whole entry): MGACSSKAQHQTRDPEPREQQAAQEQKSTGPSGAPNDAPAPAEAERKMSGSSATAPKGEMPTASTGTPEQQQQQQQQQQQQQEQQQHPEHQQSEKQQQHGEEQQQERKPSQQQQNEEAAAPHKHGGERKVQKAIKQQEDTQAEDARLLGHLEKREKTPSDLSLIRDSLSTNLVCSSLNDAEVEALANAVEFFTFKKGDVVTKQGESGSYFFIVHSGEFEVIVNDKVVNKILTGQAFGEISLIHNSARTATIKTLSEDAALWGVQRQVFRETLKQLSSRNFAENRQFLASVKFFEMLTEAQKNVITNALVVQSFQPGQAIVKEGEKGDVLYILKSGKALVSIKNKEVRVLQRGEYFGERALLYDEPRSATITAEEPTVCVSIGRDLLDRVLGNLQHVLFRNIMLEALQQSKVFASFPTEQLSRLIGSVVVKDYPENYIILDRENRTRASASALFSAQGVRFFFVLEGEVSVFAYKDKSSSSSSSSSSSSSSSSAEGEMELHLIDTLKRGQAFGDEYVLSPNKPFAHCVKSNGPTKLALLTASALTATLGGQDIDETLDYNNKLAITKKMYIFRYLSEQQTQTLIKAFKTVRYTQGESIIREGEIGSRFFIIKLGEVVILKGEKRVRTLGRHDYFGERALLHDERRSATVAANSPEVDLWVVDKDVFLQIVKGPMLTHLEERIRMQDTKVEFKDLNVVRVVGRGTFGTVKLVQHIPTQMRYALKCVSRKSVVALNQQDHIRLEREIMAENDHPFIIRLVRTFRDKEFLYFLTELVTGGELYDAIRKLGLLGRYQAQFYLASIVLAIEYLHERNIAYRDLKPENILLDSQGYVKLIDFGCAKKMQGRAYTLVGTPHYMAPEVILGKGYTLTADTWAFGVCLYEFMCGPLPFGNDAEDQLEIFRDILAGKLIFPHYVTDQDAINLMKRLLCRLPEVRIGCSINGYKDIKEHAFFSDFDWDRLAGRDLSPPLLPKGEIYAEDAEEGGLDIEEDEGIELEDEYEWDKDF

pIC50 [1]	SMILES	Activity (Eimeria acervulina [2]) [%]	Activity (Eimeria tenella [3]) [%]	Activity (Eimeria tenella [4]) [%]	Activity (Eimeria acervulina [5]) [%]	Activity (Eimeria tenella [6]) [%]	Activity (Eimeria acervulina [7]) [%]
9.51	CN(C)Cc1ccn2c(-c3ccnc(NC(C)(C)C)n3)c(-c3ccc(F)cc3)nc2c1						
10.15	C[C@H](Nc1nccc(-c2c(-c3ccc(F)cc3)nc3cc(CN(C)CCCN(C)C)ccn23)n1)c1ccccc1	50	<50				
8.25	CCOC(=O)N1CCN(Cc2ccn3c(-c4ccnc(N[C@@H](C)c5ccccc5)n4)c(-c4ccc(F)cc4)nc3c2)CC1			<50	<50		
10.22	CN(C)Cc1ccn2c(-c3ccnc(Nc4ccccc4)n3)c(-c3ccc(F)cc3)nc2c1	<50	>80				
9.82	C[C@H](Nc1nccc(-c2c(-c3ccc(F)cc3)nc3cc(CN(C)C(CO)CO)ccn23)n1)c1ccccc1			>80	<50		
10.30	CC(C)NCc1ccn2c(-c3ccnc(N[C@@H](C)c4ccccc4)n3)c(-c3ccc(F)cc3)nc2c1					>80	>80
	CN(C)Cc1ccn2c(-c3ccnc(NCc4ccccc4)n3)c(-c3ccc(F)cc3)nc2c1					>80	>80
8.55	CC(C)N(C)Cc1ccn2c(-c3ccnc(NC(C)(C)C)n3)c(-c3ccc(F)cc3)nc2c1						
9.07	CC(C)Nc1nccc(-c2c(-c3ccc(F)cc3)nc3cc(CN4CCC4)ccn23)n1						
9.70	CC(C)Nc1nccc(-c2c(-c3ccc(F)cc3)nc3cc(CN(C)C)ccn23)n1					>80	>80
9.55	CN(C)Cc1ccn2c(-c3ccnc(NCC(C)(C)C)n3)c(-c3ccc(F)cc3)nc2c1					>80	<50
9.57	C[C@H](Nc1nccc(-c2c(-c3ccc(F)cc3)nc3cc(CN(C)CC4CCCO4)ccn23)n1)c1ccccc1 (stereo partly drawn)					>80	<50
9.24	C[C@H](Nc1nccc(-c2c(-c3ccc(F)cc3)nc3cc(CN(C)CC(=O)N4CCC4)ccn23)n1)c1ccccc1			<50	<50		
9.59	C[C@H](Nc1nccc(-c2c(-c3ccc(F)cc3)nc3cc(CN(C)[C@@H](C)C(=O)N(C)C)ccn23)n1)c1ccccc1					50	50
9.96	C[C@H](Nc1nccc(-c2c(-c3ccc(F)cc3)nc3cc(CN(C)CCO)ccn23)n1)c1ccccc1					>80	<50
9.89	CCN(C)Cc1ccn2c(-c3ccnc(N[C@@H](C)c4ccccc4)n3)c(-c3ccc(F)cc3)nc2c1			>80	>80		
9.41	C[C@H](Nc1nccc(-c2c(-c3ccc(F)cc3)nc3cc(CN(C)CC(=O)N4CCCC4)ccn23)n1)c1ccccc1			>80	<50		
9.54	CCN(C)Cc1ccn2c(-c3ccnc(NCC(C)(C)C)n3)c(-c3ccc(F)cc3)nc2c1					>80	<50
9.35	CC(C)(C)CNc1nccc(-c2c(-c3ccc(F)cc3)nc3cc(CN4CCC4)ccn23)n1					<0	<0
8.89	CC(C)Nc1nccc(-c2c(-c3ccc(F)cc3)nc3cc(CN(C)C(C)C)ccn23)n1						
10.00	C[C@H](Nc1nccc(-c2c(-c3ccc(F)cc3)nc3cc(CN(C)CCN4CCC4)ccn23)n1)c1ccccc1			>80	<50		
9.22	CC(C)N(C)Cc1ccn2c(-c3ccnc(NCC(C)(C)C)n3)c(-c3ccc(F)cc3)nc2c1					<50	<50
9.96	CC(C)N(C)Cc1ccn2c(-c3ccnc(N[C@@H](C)c4ccccc4)n3)c(-c3ccc(F)cc3)nc2c1					<50	>80
9.82	C[C@H](Nc1nccc(-c2c(-c3ccc(F)cc3)nc3cc(CN(C)CCNS(C)(=O)=O)ccn23)n1)c1ccccc1					>80	<50
